Assay results: patent US7759399B2, “Pharmaceutical compositions” (priority 2002, dated 2010)

Key:
in vitro = assay type: cell-based; conditions: 37RC cells, 24 h treatment; read-out: LC50 (50% lethal dose/concentration), Neutral Red
Experimental: Cell viability was determined using the Neutral Red assay. 37RC cells were seeded at density of 6×10^4 cells/well in 24-well plates and incubated for 24 h. Confluent 37RC monolayers were treated with the test compounds at different dilutions for 24 h at 37° C. After incubation, the medium was removed and the cells were incubated with RPMI medium containing 40 μg/ml Neutral Red dye (500 μl/well). After 2 h at 37° C., the monolayers were washed with phosphate-buffered saline (PBS) and then with a solution containing 1% CaCl2 and 0.5% formaldehyde. After washing, a solution containing 1% acetic acid/50% ethanol was added to the monolayers (250 μl/well). After 10 min at room temperature, the absorbance was determined with a microplate reader (Victor 1420, Wallac) at 540 nm.

Sendai virus = Sendai virus replication in 37RC cells (virus yield by HAU titration); assay type: cell-based; conditions: Respirovirus muris, 5 HAU/10^5 cells, virus yield at 24 hours after infection, read-out: ID50 (50% inhibitory dose/concentration), Sendai virus yield
uninfected 37RC cells = assay: Toxicity to uninfected cells, determined visually by microscopy (TD100)
[1] = Alamar Blue cytotoxicity assay; assay type: cell-based; conditions: human
Experimental: HeLa cells were plated in 96-well microtiter plates in 100 μl culture medium (4×10^4/well). After 20 hours, the cells were exposed to the test compounds at different dilutions and incubated for the next 8 h at 37° C. in a 5% CO2 humidified atmosphere. After 6 h incubation, the Alamar Blue was added in an amount equal to 10% of the culture volume (10 μl). Two hours after the addition of the Alamar Blue, the fluorescence was measured using a Victor 1420 microplate reader.
The LC50/μM is the concentration at which the tested compound killed half the cells in this assay.

NF-κB = assay: NF-κB-dependent luciferase reporter gene assay, HeLa κB-transformed cells, TPA stimulated; assay type: cell-based; conditions: Homo sapiens, HeLa, 8 h treatment, TPA 25 ng/ml 2 h after exposure, read-out: NF-κB, IC50 (concentration at which the compound halved the NF-κB activity)
Experimental: (§1) Method: HeLa cell clone 13B, stably transfected with a luciferase reporter plasmid controlled by the human hsp70 promoter, and HeLa κB-transformed cells, stably transfected with a luciferase reporter plasmid controlled by a synthetic NF-κB-STM construct, were maintained in DMEM medium supplemented with 10% FBS, L-glutamine (2 mM) and G418 (250 μg/ml) at 37° C. in a 5% CO2 humidified atmosphere.
(§2) Cells were seeded at a density of 4×10^4 cells/well in 96-well plates. After 18-20 h, the medium was removed and cells were treated for 8 h with the test compounds (100 μl) at the appropriate dilutions in serum-free medium. For the NF-κB-dependent reporter gene assay, cells were stimulated with TPA (25 ng/ml) 2 h after exposure to the compounds.
(§3) After incubation, the medium was removed and cells were lysed in 10 μl of lysis buffer. The luciferase activity was determined by adding 100 μl of substrate and measuring the release of light using a Victor 1420 microplate reader (Wallac, Finland).
The fragment Kpn I-BamH I from the pGL3 basic vector containing the luciferase gene (PROMEGA) was inserted in the pcDNA3 vector (INVITROGEN) digested with Bgl II-KpnI. (This digestion removes the CMV-promoter from pcDNA3.) The resulting new vector was digested with Kpn I-Hind III and a promoter containing a ‘5xNF-κB binding sites—TATA box’ sequence was inserted upstream of the luciferase gene. This vector has been named STM.
To obtain stable HeLa cell lines expressing the luciferase gene under the control of NF-κB, HeLa cells were transfected (using lipofectamine plus GIBCO) with the STM-Pvu I linearized vector, and selected for 20 days with G418 (800 μg/ml). After selection, the resistant HeLa cell pool was controlled (in quadruplicate samples) for luciferase activity after stimulation with TNFα, IL-1 and TPA.
(§4) The AC200/μM for HSF is the concentration at which the tested compound doubled the HSF activity in this assay. The IC50/μM for NF-κB is the concentration at which the tested compound halved the NF-κB activity in this assay.

HSF = HSF luciferase reporter assay, HeLa cell clone 13B (human hsp70 promoter); assay type: cell-based; conditions: 8 h, HeLa clone 13B, 8 h treatment, serum-free medium, read-out: HSF, AC200 (concentration at which the compound doubled the HSF activity)
Experimental: as §1, §2, §3, §4

| SMILES | CC50 at 24 h (in vitro) [µM] | IC50 (Sendai virus) [µM] | TD100 (dose or concentration at which the compound was 100% toxic to uninfected cells) (uninfected 37RC cells) [µM] | CC50 at 8 h [1] [µM] | IC50 (NF-κB) [µM] | EC (2-fold) (HSF) [µM] |
| --- | --- | --- | --- | --- | --- | --- |
| CC(=O)N[C@@H](CS[C@H]1CC(=O)C[C@@H]1O[Si](C)(C)C(C)(C)C)C(=O)O [CTM-115] | 228 | 50 | >500 | > 800 |  |  |
| CC(C)(C)[Si](C)(C)O[C@H]1CC(=O)C[C@@H]1Sc1ccc(F)cc1 [CTM-108] | 29 | 4 | 50 | > 800 | > 100 | 13 |
| CC(C)(C)[Si](C)(C)O[C@H]1CC(=O)C[C@@H]1Sc1ccccn1 [CTM-86] | 7 | 2 | 10 | 96 | 36 | 20 |
| CC(C)(C)[Si](C)(C)O[C@H]1CC(=O)C[C@@H]1Sc1ccc([N+](=O)[O-])cc1 [CTM-107] |  | 0.3 | 10 | 169 | 47 | 21 |
| CC(C)(C)OC(=O)N[C@@H](CS[C@H]1CC(=O)C(C)(C)C1OC(=O)C(C)(C)C)C(=O)O (stereo in doubt) [CTM-218, (2R)-2-tert-butoxycarbonylamino-3-[(1S,2R)-2-(2,2-dimethylpropionyloxy)-3,3-dimethyl-4-oxocyclopentylsulfanyl]-propionic acid] |  |  |  |  | 22 | 15 |
| CC(=O)Nc1ccc(S[C@H]2CC(=O)C[C@@H]2O[Si](C)(C)C(C)(C)C)cc1 [CTM-81] | 17 | 1 | 50 | 181 | 31 | 28 |
| CC(=O)NCCS[C@H]1CC(=O)C[C@@H]1O[Si](C)(C)C(C)(C)C [CTM-83] | 27 | 3 | 50 | > 800 | 47 | 27 |
| CC(C)(C)OC(=O)N[C@@H](CS[C@H]1CC(=O)C[C@@H]1O[Si](C)(C)C(C)(C)C)C(=O)OC(C)(C)C [CTM-183] | 28 | 1.6 | 50 |  |  |  |
| CC(C)(C)[Si](C)(C)O[C@H]1CC(=O)C[C@@H]1Sc1ncccn1 [CTM-84] | 6.3 | 1 | 10 | 556 | 28 | 28 |
| CCOC(=O)[C@H](CS[C@H]1CC(=O)C[C@@H]1O[Si](C)(C)C(C)(C)C)NC(C)=O [CTM-131] | 125 | 10 | 50 | > 800 | > 100 | 70 |
| CC(C)(C)[Si](C)(C)O[C@H]1CC(=O)C[C@@H]1Sc1ccncc1 [CTM-132] | 2.6 | 0.2 | 10 | 220 | 33 | 13 |
| C[C@@H](CS[C@H]1CC(=O)C[C@@H]1O[Si](C)(C)C(C)(C)C)C(=O)N1CCCC1C(=O)O (some centres unmarked) [CTM-182] | 54 | 5 | 100 |  | > 100 | 60 |
| COC(=O)C(CSC1CC(=O)CC(O[Si](C)(C)C(C)(C)C)C1)NC(=O)OC(C)(C)C (centres unmarked) [CTM-78, 2-tert-Butoxycarbonylamino-3-[3-(tert-butyl-dimethyl-silanyloxy)-5-oxo-cyclohexylsulfanyl]-propionic acid methyl ester] | 18.6 |  | 18.6 |  |  | 45 |
| CC(C)(C)[Si](C)(C)OC1C=CC(=O)C1 (centres unmarked) [CTC-8, 4-tert-butyldimethylsilyloxy-cyclopent-2-en-1-one, reference compound] |  | 0.5 | 100 |  |  |  |
| Cc1ccc(S[C@H]2CC(=O)C[C@@H]2O[Si](C)(C)C(C)(C)C)cc1 [CTM-80] | 16 | 1 | 50 | > 800 | > 100 | 60 |
| COC(=O)CCS[C@H]1CC(=O)C[C@@H]1O[Si](C)(C)C(C)(C)C [CTM-88] | 45 | 10 | 50 | 477 | 65 | 60 |
| CC(C)(C)OC(=O)N[C@@H](CS[C@H]1CC(=O)C[C@@H]1O[Si](C)(C)C(C)(C)C)C(=O)O [CTM-145] | 14 | 0.8 | 50 | > 800 |  |  |
| CC(C)(C)OC(=O)N[C@@H](CS[C@@H]1CC(=O)C(C)(C)C1OC(=O)C(C)(C)C)C(=O)O (stereo in doubt) [CTM-217, (2R)-2-tert-butoxycarbonylamino-3-[(1R,2S)-2-(2,2-dimethylpropionyloxy)-3,3-dimethyl-4-oxocyclopentylsulfanyl]-propionic acid] |  |  |  |  | 14 | 10 |
| CCOC(=O)[C@H](CS[C@H]1CC(=O)C[C@@H]1O[Si](C)(C)C(C)(C)C)NC(=O)OC(C)(C)C [CTM-184] | 25 | 1 | 50 |  | 61 | 24 |
| COC(=O)[C@H](CS[C@H]1CC(=O)CC[C@@H]1O[Si](C)(C)C(C)(C)C)NC(=O)OC(C)(C)C [CTM-68, (R)-2-tert-Butoxycarbonylamino-3-[(1S,2S)-2-(tert-butyl-dimethyl-silanyloxy)-5-oxo-cyclohexylsulfanyl]-propionic acid methyl ester] | 9.8 |  | 9.8 |  |  | 98 |
